T/C data for 27 compounds are collected here from PubChem BioAssay AID330 (DTP/NCI, 2004).

“And” between values parts separate entries of the source, which are not always exact repeats. Identical values can stand only once. Inconclusive results and toxic doses are left out.

This experiment deals with P388 leukemia ip, CD2F1 mice, survival T/C. As to the kind of experiment: NCI In Vivo Anticancer Drug Screen. Data for tumor model P388 Leukemia (intraperitoneal) in CD2F1 (CDF1) mice. Conditions: endpoint: median survival time, higher = longer survival. In outline:
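Mice carrying the transplanted tumor received test compound or vehicle. Survival was recorded in each group, and the value is the treated-group measurement divided by that of the vehicle-treated control group.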

[1] abbreviates: dose: 50.0 mg/kg/injection, schedule: Q01DX005 (ip), vehicle: saline with Tween-80.
Where [2] appears, read: dose: 100.0 mg/kg/injection, schedule: Q01DX005 (ip), vehicle: saline with Tween-80.
Setting [3] is: dose: 200.0 mg/kg/injection, schedule: Q01DX005 (ip), vehicle: saline with Tween-80.
The mark [4] stands for this setting: dose: 50.0 mg/kg/injection, schedule: Q01DX009 (ip), vehicle: saline with Tween-80.
[5] abbreviates: dose: 100.0 mg/kg/injection, schedule: Q01DX009 (ip), vehicle: saline with Tween-80.
The mark [6] stands for this setting: dose: 200.0 mg/kg/injection, schedule: Q01DX009 (ip), vehicle: saline with Tween-80.
[7] abbreviates: dose: 25.0 mg/kg/injection, schedule: Q01DX009 (ip), vehicle: saline with Tween-80.
Setting [8] is: dose: 25.0 mg/kg/injection, schedule: Q01DX005 (ip), vehicle: saline with Tween-80.
Setting [9] is: dose: 60.0 mg/kg/injection, schedule: Q01DX005 (ip), vehicle: saline with Tween-80.
Setting [10] is: dose: 120.0 mg/kg/injection, schedule: Q01DX005 (ip), vehicle: saline with Tween-80.
[11] abbreviates: dose: 240.0 mg/kg/injection, schedule: Q01DX005 (ip), vehicle: saline with Tween-80.
The mark [12] stands for this setting: dose: 100.0 mg/kg/injection, schedule: Q01DX009 (ip), vehicle: saline.
Setting [13] is: dose: 200.0 mg/kg/injection, schedule: Q01DX009 (ip), vehicle: saline.
[14] abbreviates: dose: 50.0 mg/kg/injection, schedule: Q01DX005 (ip), vehicle: Klucel (hydroxypropylcellulose) (HPC).
[15] abbreviates: dose: 100.0 mg/kg/injection, schedule: Q01DX005 (ip), vehicle: Klucel (hydroxypropylcellulose) (HPC).
The mark [16] stands for this setting: dose: 200.0 mg/kg/injection, schedule: Q01DX005 (ip), vehicle: Klucel (hydroxypropylcellulose) (HPC).
[17] abbreviates: dose: 50.0 mg/kg/injection, schedule: Q01DX009 (ip), vehicle: saline.

As for `CN(C)c1ccc(P(=O)(O)O)cc1`, the T/C is 96 % of control under setting [1], 99 % of control under setting [2] and 91 % of control under setting [3].
Turning to `N#CC(CCCC(C#N)c1ccccc1)c1ccccc1` (configuration not stated), the T/C is, setting by setting: (dose: 50.0 mg/kg/injection, schedule: Q01DX001 (ip), vehicle: Klucel (hydroxypropylcellulose) (HPC)) 106 % of control; (dose: 100.0 mg/kg/injection, schedule: Q01DX001 (ip), vehicle: Klucel (hydroxypropylcellulose) (HPC)) 108 % of control.
On to `Nn1c(=S)[nH]nc(/C=C/c2ccc3c(c2)OCO3)c1=O`, for which the T/C under setting [4] was 89 % of control, the T/C under setting [5] was 91 % of control and the T/C under setting [6] is 98 % of control.
Turning to `COc1ccc(-c2coc3cc(OC4OC(COC5OC(CO)C(O)C(O)C5O)C(O)C(O)C4O)cc(O)c3c2=O)cc1` (configuration not stated), the T/C was 101 % of control under setting [7], 98 % of control under setting [4] and 93 % of control under setting [5].
For the compound `COC(=O)Nc1nc2ccc(C(=O)C3CC3)cc2[nH]1`, the T/C (dose: 12.5 mg/kg/injection, schedule: Q01DX005 (ip), vehicle: saline with Tween-80) was 111 % of control; the T/C under setting [8] was 108 % of control; the T/C under setting [1] was 117 % of control; the T/C under setting [2] was 180 % of control.
Consider `C=CCc1cc(OC)c(OCC(=O)O)c(OC)c1`, for which the T/C by setting is: (dose: 100.0 mg/kg/injection, schedule: Q04DX003 (ip), vehicle: Klucel (hydroxypropylcellulose) (HPC)) 98 % of control; (dose: 200.0 mg/kg/injection, schedule: Q04DX003 (ip), vehicle: Klucel (hydroxypropylcellulose) (HPC)) 109 % of control.
Regarding `Clc1c2ccccc2c(Cl)c2ccccc12`, the T/C (dose: 100.0 mg/kg/injection, schedule: Q04DX002 (ip), vehicle: saline with Tween-80) was 97 % of control; the T/C (dose: 200.0 mg/kg/injection, schedule: Q04DX002 (ip), vehicle: saline with Tween-80) is 103 % of control; the T/C (dose: 400.0 mg/kg/injection, schedule: Q04DX002 (ip), vehicle: saline with Tween-80) was 96 % of control.
Regarding `S=c1c(-c2ccccc2)cnc2sccn12`, the T/C under setting [9] is 100 % of control, the T/C under setting [10] is 96 % of control and the T/C under setting [11] is 98 % of control.
With `CCCCCCCCCCCCCCC(C(=O)[O-])[n+]1ccccc1` (configuration not stated), the T/C reads like this: (dose: 15.0 mg/kg/injection, schedule: Q01DX005 (ip), vehicle: saline) 114 % of control; (dose: 30.0 mg/kg/injection, schedule: Q01DX005 (ip), vehicle: saline) 96 % of control; (dose: 60.0 mg/kg/injection, schedule: Q01DX005 (ip), vehicle: saline) 110 % of control.
With `COc1ccc(C(C)c2cc(C(C)(C)C)cc(C(C)(C)C)c2O)cc1` (configuration not stated), the T/C runs as follows: (dose: 50.0 mg/kg/injection, schedule: Q01DX005 (ip), vehicle: distilled water + alcohol) 100 % of control; (dose: 100.0 mg/kg/injection, schedule: Q01DX005 (ip), vehicle: distilled water + alcohol) 96 % of control; (dose: 200.0 mg/kg/injection, schedule: Q01DX005 (ip), vehicle: distilled water + alcohol) 94 % of control.
Take `Oc1ccccc1C(Nc1nc2ccccc2s1)c1ccc2cccnc2c1O` (configuration not stated): the T/C is 90 % of control under setting [12]; 95 % of control (dose: 100.0 mg/kg/injection, schedule: Q04DX003 (ip), vehicle: saline); 100 % of control under setting [13]; 91 % of control (dose: 200.0 mg/kg/injection, schedule: Q04DX003 (ip), vehicle: saline); 90 % of control (dose: 400.0 mg/kg/injection, schedule: Q01DX009 (ip), vehicle: saline); 91 % of control (dose: 400.0 mg/kg/injection, schedule: Q04DX003 (ip), vehicle: saline).
Turning to `Cc1ccc(C)c(C(O)(c2cc(C)ccc2C)C2(O)CCCCC2)c1`, the T/C under setting [1] is 106 % of control, the T/C under setting [2] is 103 % of control and the T/C under setting [3] is 97 % of control.
Take `O=NN(CCCl)C(=O)Nc1cc(Cl)ccc1O`: the T/C is 150 % of control under setting [4] and 122 % of control (dose: 50.0 mg/kg/injection, schedule: Q04DX003 (ip), vehicle: saline with Tween-80).
In the case of `COC(=O)c1cc(Cl)ccc1OS(N)(=O)=O`, the T/C (dose: 60.0 mg/kg/injection, schedule: Q01DX005 (ip), vehicle: Klucel (hydroxypropylcellulose) (HPC)) was 103 % of control; the T/C (dose: 120.0 mg/kg/injection, schedule: Q01DX005 (ip), vehicle: Klucel (hydroxypropylcellulose) (HPC)) is 102 % of control; the T/C (dose: 240.0 mg/kg/injection, schedule: Q01DX005 (ip), vehicle: Klucel (hydroxypropylcellulose) (HPC)) is 97 % of control.
`COc1c(C)cc(Cc2ccc3c(c2)OCO3)cc1C`: the T/C under setting [14] is 109 % of control, the T/C under setting [15] is 109 % of control and the T/C under setting [16] is 113 % of control.
On to `CCOC(=O)/C=C(\C)C(F)(F)F`, for which the T/C (dose: 15.0 mg/kg/injection, schedule: Q01DX005 (ip), vehicle: saline with Tween-80) is 95 % of control; the T/C (dose: 30.0 mg/kg/injection, schedule: Q01DX005 (ip), vehicle: saline with Tween-80) was 100 % of control and 103 % of control; the T/C under setting [9] is 98 % of control and 104 % of control and 94 % of control; the T/C under setting [10] was 100 % of control and 101 % of control; the T/C under setting [11] was 106 % of control and 111 % of control.
For the compound `CC(C)=CCc1c(C)cc2cc3c(c(O)c2c1O)C(O)=CC(=O)C3(CC=C(C)C)CC=C(CO)CO` (configuration not stated), the T/C was 97 % of control (dose: 25.0 mg/kg/injection, schedule: Q01DX005 (ip), vehicle: Klucel (hydroxypropylcellulose) (HPC)); 93 % of control under setting [14]; 94 % of control under setting [15].
For the compound `COC(=O)Nc1nc2ccc(C(C)(O)c3cccs3)cc2[nH]1` (configuration not stated), the T/C by setting is: under setting [8], 100 % of control; under setting [1], 103 % of control; under setting [2], 103 % of control; under setting [3], 100 % of control.
With `Cn1c2ccccc2c2[nH]c3ccccc3c(=O)c21`, the T/C under setting [14] is 108 % of control and 97 % of control; the T/C under setting [15] is 95 % of control; the T/C under setting [16] is 90 % of control and 96 % of control.
`CSC(=S)N/N=C/c1ccccn1`: the T/C is 100 % of control (dose: 12.5 mg/kg/injection, schedule: Q01DX009 (ip), vehicle: saline with Tween-80); 104 % of control and 109 % of control under setting [7]; 113 % of control under setting [4].
Regarding `COC(=O)c1cc(-c2ccc([N+](=O)[O-])cc2)n2c(N)nnc2n1`, the T/C is 92 % of control under setting [9] and 86 % of control under setting [10].
With `COCCOC(=O)c1c(Cl)c(Cl)c(Cl)c(Cl)c1C(=O)O`, the T/C by setting is: under setting [4], 96 % of control; under setting [5], 96 % of control; under setting [6], 101 % of control.
Turning to `CC(C)N1C(=O)N(Cl)C2C1N(Cl)C(=O)N2Cl` (configuration not stated), the T/C reads like this: under setting [8], 99 % of control; under setting [1], 108 % of control and 122 % of control; under setting [2], 122 % of control; under setting [3], 113 % of control and 117 % of control.
For the compound `N#Cc1ccccc1C#N`, the T/C by setting is: (dose: 1.56 mg/kg/injection, schedule: Q04DX003 (ip), vehicle: saline) 98 % of control; (dose: 3.13 mg/kg/injection, schedule: Q04DX003 (ip), vehicle: saline) 98 % of control; (dose: 6.25 mg/kg/injection, schedule: Q04DX003 (ip), vehicle: saline) 100 % of control; (dose: 12.5 mg/kg/injection, schedule: Q04DX003 (ip), vehicle: saline with Tween-80) 104 % of control; (dose: 12.5 mg/kg/injection, schedule: Q04DX003 (ip), vehicle: saline) 100 % of control; (dose: 25.0 mg/kg/injection, schedule: Q04DX003 (ip), vehicle: saline with Tween-80) 95 % of control.
For the compound `CCCCCCCCCCCCCC#CC(=O)OC`, the T/C was 104 % of control under setting [17], 106 % of control under setting [12] and 106 % of control under setting [13].
As to `O=C1N=c2ccccc2=C1c1sc(=O)n(Cc2nc3ccccc3[nH]2)c1O`, the T/C runs as follows: under setting [14], 102 % of control; under setting [15], 97 % of control; under setting [16], 93 % of control.
As for `O=[N+]([O-])c1cccn2cnnc12`, the T/C was 98 % of control under setting [17] and 87 % of control under setting [12].
